Data on 27 compounds can be found in ChEMBL document CHEMBL3400047, “Synthesis and binding properties of new long-chain 4-substituted piperazine derivatives as 5-HT₁A and 5-HT₇ receptor ligands” (Bioorg Med Chem Lett, 2015).

Assay [1] deals with T1, 5-hydroxytryptamine receptor 1A (Homo sapiens, UniProt P08908).
T1 sequence (P08908 whole entry): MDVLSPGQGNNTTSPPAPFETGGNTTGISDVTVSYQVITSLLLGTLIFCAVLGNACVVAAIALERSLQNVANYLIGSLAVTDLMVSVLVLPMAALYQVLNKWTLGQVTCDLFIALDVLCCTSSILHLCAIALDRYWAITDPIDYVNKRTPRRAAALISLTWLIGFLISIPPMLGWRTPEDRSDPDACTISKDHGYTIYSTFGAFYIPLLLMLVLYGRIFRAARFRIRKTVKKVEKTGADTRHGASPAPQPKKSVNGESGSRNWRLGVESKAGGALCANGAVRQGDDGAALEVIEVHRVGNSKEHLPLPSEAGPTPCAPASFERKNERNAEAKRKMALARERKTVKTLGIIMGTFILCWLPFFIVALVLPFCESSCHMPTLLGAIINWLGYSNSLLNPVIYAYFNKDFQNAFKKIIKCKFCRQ
As to the kind of experiment: Displacement of [3H]-5-HT from human 5-HT1A receptor expressed in CHOK1 cells after 30 mins by liquid scintillation counting analysis. The format is cell-based, CHO-K1.

Assay [2] deals with T2, 5-hydroxytryptamine receptor 7 (Homo sapiens, UniProt P34969). As to the kind of experiment: Displacement of [3H]-8-OH-DPAT from human 5-HT7 receptor expressed in CHOK1 cells after 30 mins by liquid scintillation counting analysis. The format is cell-based, CHO-K1. A general note: In a radioligand displacement assay an active substance lowers the binding of a labelled ligand.

Assay [3] deals with 5-hydroxytryptamine receptor 1B (Homo sapiens) (UniProt P28222). Description: Antagonist activity at human […] receptor expressed in HEK293 cells assessed as inhibition of 5-CT-induced cAMP production at 1 uM after 30 mins by TR-FRET assay. It is filed as functional, cell-based.
The target in assay [4] is T2, 5-hydroxytryptamine receptor 7. As to the kind of experiment: Displacement of [3H]-8-OH-DPAT from human 5-HT7 receptor expressed in CHOK1 cells at 10^-5 M after 30 mins by liquid scintillation counting analysis. It is filed as cell-based. The following applies: CHO-K1.
Assay [5] is filed under the species Homo sapiens. Description: Selectivity ratio of Ki for human 5-HT7 receptor to Ki for human 5-HT1A receptor.
The target in assay [6] is T3, 5-hydroxytryptamine receptor 1A (Rattus norvegicus, UniProt P19327).
T3 sequence (P19327 whole entry): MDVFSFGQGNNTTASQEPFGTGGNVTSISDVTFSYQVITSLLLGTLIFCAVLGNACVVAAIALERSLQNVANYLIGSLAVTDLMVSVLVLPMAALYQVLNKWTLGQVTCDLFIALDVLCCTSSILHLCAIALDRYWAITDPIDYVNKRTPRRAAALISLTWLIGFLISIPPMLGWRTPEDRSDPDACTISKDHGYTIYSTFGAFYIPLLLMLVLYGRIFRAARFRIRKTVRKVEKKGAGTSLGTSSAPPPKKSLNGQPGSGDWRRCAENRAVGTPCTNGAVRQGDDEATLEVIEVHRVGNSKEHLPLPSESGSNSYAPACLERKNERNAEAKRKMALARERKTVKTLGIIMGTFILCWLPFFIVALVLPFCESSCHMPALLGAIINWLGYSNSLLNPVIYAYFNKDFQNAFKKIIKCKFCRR
Description: Binding affinity to rat hippocampus 5-HT1A receptor.

For assay [7], the species on record is Homo sapiens. Description: Selectivity ratio of Ki for human 5-HT1A receptor to Ki for human 5-HT7 receptor.

Chain of 5-hydroxytryptamine receptor 1B (Homo sapiens) (P28222 whole entry): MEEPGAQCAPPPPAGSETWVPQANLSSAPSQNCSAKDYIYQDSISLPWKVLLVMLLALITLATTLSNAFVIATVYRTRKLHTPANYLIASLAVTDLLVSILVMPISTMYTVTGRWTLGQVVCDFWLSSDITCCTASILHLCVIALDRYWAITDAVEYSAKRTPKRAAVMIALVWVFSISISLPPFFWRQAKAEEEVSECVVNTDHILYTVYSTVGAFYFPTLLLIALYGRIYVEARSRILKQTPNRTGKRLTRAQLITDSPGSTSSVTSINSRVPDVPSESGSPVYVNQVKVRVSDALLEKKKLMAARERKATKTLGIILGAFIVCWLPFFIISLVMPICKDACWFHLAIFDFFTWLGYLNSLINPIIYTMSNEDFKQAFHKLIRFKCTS
T2 sequence (P34969 whole entry): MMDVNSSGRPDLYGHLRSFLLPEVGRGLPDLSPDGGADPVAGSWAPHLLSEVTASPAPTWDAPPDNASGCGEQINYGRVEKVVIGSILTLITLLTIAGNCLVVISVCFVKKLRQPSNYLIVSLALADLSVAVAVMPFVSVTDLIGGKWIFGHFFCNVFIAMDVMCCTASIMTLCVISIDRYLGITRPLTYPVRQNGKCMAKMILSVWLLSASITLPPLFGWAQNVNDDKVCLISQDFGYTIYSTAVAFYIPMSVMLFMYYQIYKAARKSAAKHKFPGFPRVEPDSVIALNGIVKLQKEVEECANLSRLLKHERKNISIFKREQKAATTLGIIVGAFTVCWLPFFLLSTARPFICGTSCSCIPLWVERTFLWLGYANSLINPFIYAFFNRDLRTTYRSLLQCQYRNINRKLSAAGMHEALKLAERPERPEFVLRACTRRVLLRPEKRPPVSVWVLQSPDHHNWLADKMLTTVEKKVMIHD

The term Ki denotes a measure of affinity in units of concentration, obtained from inhibition or displacement. Consider `Cc1sc2ncn(CCCCCN3CCN(c4ccc(Cl)cc4)CC3)c(=O)c2c1C`, for which the Ki amounted to 26.4 nM in assay [1] and 213 nM in assay [2].
As a reminder, the inhibition is the percentage by which the read-out fell short of the control. With `CCOc1ccccc1N1CCN(CCCCCn2cnc3ccccc3c2=O)CC1`, the inhibition constant Ki stood at 1.04 nM in assay [1] and 6.88 nM in assay [2]. In addition, in assay [3], the inhibition is 42%.
For the compound `Cc1sc2ncn(CCCCCN3CCN(Cc4ccccc4)CC3)c(=O)c2c1C`, the inhibitory constant (Ki) in assay [1] was determined as 211 nM; in assay [2], 1650 nM.
The matching figures for `O=c1c2ccccc2ncn1CCCCCN1CCN(Cc2ccccc2)CC1`: 268 nM and 1080 nM.
With `Cc1sc2nc(CCCCCN3CCN(c4ccc(Cl)cc4)CC3)[nH]c(=O)c2c1C`, the Ki in assay [1] was 53.9 nM; in assay [2] it was 1460 nM.
For `O=c1[nH]c(CCCCN2CCN(c3ccccc3)CC2)nc2ccccc12`, in that order: 36.6 nM and 145 nM.
For `Cc1sc2nc(CCCCCN3CCN(Cc4ccccc4)CC3)[nH]c(=O)c2c1C`, in that order: 363 nM and 147 nM.
For `O=c1[nH]c(CCCCCN2CCN(c3ccccc3)CC2)nc2ccccc12`, in that order: 43.5 nM and 228 nM.
In assay [4], `Cc1sc2nc(CCCCN3CCC(Cc4ccccc4)CC3)[nH]c(=O)c2c1C` came in with an inhibition of less than 50%.
As to `Cc1sc2nc(CCCCN3CCN(c4ccccc4)CC3)[nH]c(=O)c2c1C`, the values for the inhibition constant Ki in assay [1] and in assay [2] were 37.4 nM and 357 nM, respectively. The Ratio Ki in the assay listed under Homo sapiens [5] was 10.
As for `O=c1c2ccccc2ncn1CCCCCN1CCN(c2ccccc2)CC1`, the Ki in assay [1] was determined as 28.9 nM; in assay [2] it was 307 nM.
Turning to `Cc1sc2ncn(CCCCCN3CCN(c4ccccc4)CC3)c(=O)c2c1C`, the Ki in assay [1] was 16.1 nM; in assay [2], 143 nM.
`O=c1c2ccccc2ncn1CCCCN1CCN(c2cccc(Cl)c2)CC1`: the values for the Ki in assay [1], in assay [2] and in assay [6] were 5.3 nM, 502 nM and 50 nM, respectively.
Regarding `Cc1sc2nc(CCCCCN3CCC(Cc4ccccc4)CC3)[nH]c(=O)c2c1C`, the inhibitory constant (Ki) in assay [1] was found to be 148 nM; in assay [2], 185 nM.
In the case of `O=c1c2ccccc2ncn1CCCCCN1CCN(c2ccc(Cl)cc2)CC1`, the figures for the Ki in assay [1] and in assay [2] were 51.5 nM and 12.9 nM, respectively.
The matching figures for `O=c1[nH]c(CCCCCN2CCN(c3ccc(Cl)cc3)CC2)nc2ccccc12`: 116 nM and 101 nM.
The matching figures for `O=c1[nH]c(CCCCCN2CCN(c3cccc(Cl)c3)CC2)nc2ccccc12`: 7.33 nM and 11.9 nM.
Regarding `Cc1sc2nc(CCCCCN3CCN(c4cccc(Cl)c4)CC3)[nH]c(=O)c2c1C`, the figures for the Ki in assay [1] and in assay [2] were 114 nM and 68.4 nM, respectively. Besides, in the assay listed under Homo sapiens [7], the Ratio Ki was 2.
As for `NC(=O)c1ccccc1NC(=O)CCCCN1CCN(c2cccc(Cl)c2)CC1`, the inhibition constant (Ki) was found to be 39.6 nM in assay [1] and 168 nM in assay [2].
In assay [4], `Cc1sc2nc(CCCCN3CCN(Cc4ccccc4)CC3)[nH]c(=O)c2c1C` gave an inhibition of less than 50%.
Regarding `Cc1sc2nc(CCCCCN3CCN(c4ccccc4)CC3)[nH]c(=O)c2c1C`, the values for the Ki in assay [1] and in assay [2] were 15.2 nM and 30.1 nM, respectively.
For the compound `Cc1sc2ncn(CCCCCN3CCN(c4cccc(Cl)c4)CC3)c(=O)c2c1C`, the results for the Ki in assay [1] and in assay [2] were 3.23 nM and 88.5 nM, respectively. Besides, in the assay filed under Homo sapiens [5], the Ratio Ki stood at 27.
With `O=c1[nH]c(CCCCN2CCN(c3ccc(Cl)cc3)CC2)nc2ccccc12`, the Ki in assay [1] is 75.3 nM; in assay [2], 1140 nM.
Regarding `O=c1c2ccccc2ncn1CCCCCN1CCN(c2cccc(Cl)c2)CC1`, the inhibition constant (Ki) in assay [1] was found to be 6.28 nM; in assay [2], 35.8 nM.
Turning to `CCOc1ccccc1N1CCN(CCCCCn2cnc3sc(C)c(C)c3c2=O)CC1`, the results for the inhibition constant (Ki) in assay [1] and in assay [2] were 1.03 nM and 2.99 nM, respectively. Moreover, the inhibition in assay [3] stood at 38%.
On to `O=c1[nH]c(CCCCN2CCN(c3cccc(Cl)c3)CC2)nc2ccccc12`, for which the inhibitory constant (Ki) in assay [1] was found to be 2.96 nM; in assay [2], 21.2 nM.
Consider `CC1CCN(CC[C@H]2CCCN2S(=O)(=O)c2cccc(O)c2)CC1`, for which the inhibition in assay [3] was determined as 90%.
